pIC50: −log10 of the molar value. Values after ≈ are worked out from the molar mass of the structure shown. Active and inactive are the calls of the source. The rule behind the calls is not given here.
Assays:
[1] = Drug metabolism in rat liver microsomes assessed as cytochrome P450-mediated N-demethylated metabolite formation at 100 uM after 6 hrs in presence of NADPH generating system by HPLC-UV-MS analysis; type: ADME
Cytochrome P450 [2] = assay: Drug metabolism in human liver microsomes assessed as cytochrome P450-mediated O-demethylated metabolite formation at 100 uM after 6 hrs in presence of NADPH generating system by HPLC-UV-MS analysis; type: ADME
U-87 MG = assay: Antiproliferative activity against human U87MG cells after 72 hrs by MTS assay; type: functional, cell-based, U-87MG ATCC
[3] = Aqueous solubility of the compound in phosphate buffer at pH 7.4 after 4 hrs by HPLC-UV analysis; type: physicochemical
Cytochrome P450 [4] = assay: Drug metabolism in human liver microsomes assessed as cytochrome P450-mediated 6-(1-(3-hydroxy-4-methoxyphenyl)vinyl)-2,3,4-trimethoxyphenol metabolite formation at 100 uM after 6 hrs in presence of NADPH generating system by HPLC-UV-MS analysis; type: ADME
[5] = Drug metabolism in rat liver microsomes assessed as cytochrome P450-mediated 6-(1-(3-hydroxy-4-methoxyphenyl)vinyl)-2,3,4-trimethoxyphenol metabolite formation at 100 uM after 6 hrs in presence of NADPH generating system by HPLC-UV-MS analysis; type: ADME
[6] = Inhibition of sheep brain tubulin polymerization by DAPI-fluorescence based fluorimetry; design: species or system Ovis aries
A549 [7] = assay: cells; settings: Homo sapiens, A549, 72 h
Description: Antiproliferative activity against human A549 cells after 72 hrs by MTS assay

K-562R [8] = assay: Antiproliferative activity against human K562R cells after 72 hrs by MTS assay; type: functional, cell-based
HUVEC [9] = assay: cells; settings: Homo sapiens, 72 h
Description: Antiproliferative activity against HUVEC after 72 hrs by MTS assay

HT-29 = assay: cells; settings: Homo sapiens, HT-29, 72 h
Description: Antiproliferative activity against human HT-29 cells after 72 hrs by MTS assay

Cytochrome P450 [10] = assay: Drug metabolism in human liver microsomes assessed as cytochrome P450-mediated hydroxylated metabolite formation at 100 uM after 6 hrs in presence of NADPH generating system by HPLC-UV-MS analysis; type: ADME
Cytochrome P450 [11] = assay: Drug metabolism in human liver microsomes assessed as cytochrome P450-mediated N-demethylated metabolite formation at 100 uM after 6 hrs in presence of NADPH generating system by HPLC-UV-MS analysis; type: ADME
[12] = Drug metabolism in rat liver microsomes assessed as cytochrome P450-mediated hydroxylated metabolite formation at 100 uM after 6 hrs in presence of NADPH generating system by HPLC-UV-MS analysis; type: ADME
[13] = Lipophilicity, log P of the compound after 24 hrs by HPLC analysis; type: physicochemical
K562 = assay: cells; settings: Homo sapiens, K562, 72 h
[14] = Drug metabolism in rat liver microsomes assessed as cytochrome P450-mediated O-demethylated metabolite formation at 100 uM after 6 hrs in presence of NADPH generating system by HPLC-UV-MS analysis; type: ADME
HCT-116 [15] = assay: cells; settings: Homo sapiens, HCT-116, 72 h
Description: Antiproliferative activity against human HCT116 cells after 72 hrs by MTS assay

Cytochrome P450 [16] = assay: Drug level in human liver microsomes treated with 9-Methyl-3-(1-(2-methylquinolin-4-yl)vinyl)-9H-carbazole assessed as CYP450-mediated compound metabolism at 100 uM after 6 hrs in presence of NADPH generating system by HPLC-UV-MS analysis; type: ADME
[17] = Drug level in rat liver microsomes treated with 9-Methyl-3-(1-(2-methylquinolin-4-yl)vinyl)-9H-carbazole assessed as CYP450-mediated compound metabolism at 100 uM after 6 hrs in presence of NADPH generating system by HPLC-UV-MS analysis; type: ADME
[18] = Drug level in rat liver microsomes treated with isocombratestatin-A4 assessed as CYP450-mediated compound metabolism at 100 uM after 6 hrs in presence of NADPH generating system by HPLC-UV-MS analysis; type: ADME
Cytochrome P450 [19] = assay: Drug level in human liver microsomes treated with isocombratestatin-A4 assessed as CYP450-mediated compound metabolism at 100 uM after 6 hrs in presence of NADPH generating system by HPLC-UV-MS analysis; type: ADME
Cytochrome P450 [20] = assay: Drug metabolism in human liver microsomes assessed as cytochrome P450-mediated 4-(1-(3-hydroxy-4-methoxyphenyl)vinyl)-2,6-dimethoxyphenol metabolite formation at 100 uM after 6 hrs in presence of NADPH generating system by HPLC-UV-MS analysis; type: ADME
[21] = Drug metabolism in rat liver microsomes assessed as cytochrome P450-mediated 2-methoxy-5-(1-(3,4,5-trimethoxyphenyl)vinyl)cyclohexa-2,5-diene-1,4-dione metabolite formation at 100 uM after 6 hrs in presence of NADPH generating system by HPLC-UV-MS analysis; type: ADME
[22] = Drug metabolism in rat liver microsomes assessed as cytochrome P450-mediated 4-(1-(3-hydroxy-4-methoxyphenyl)vinyl)-2,6-dimethoxyphenol metabolite formation at 100 uM after 6 hrs in presence of NADPH generating system by HPLC-UV-MS analysis; type: ADME
Cytochrome P450 [23] = assay: Drug metabolism in human liver microsomes assessed as cytochrome P450-mediated 2-methoxy-5-(1-(3,4,5-trimethoxyphenyl)vinyl)cyclohexa-2,5-diene-1,4-dione metabolite formation at 100 uM after 6 hrs in presence of NADPH generating system by HPLC-UV-MS analysis; type: ADME
HCT-116 [24] = assay: Induction of cell cycle arrest in human HCT116 cells assessed as accumulation at G2M phase at 10 nM after 24 hrs by propidium iodide staining based flow cytometry relative to control; type: functional
K-562R [25] = assay: Potency index, ratio of CA-4 IC50 to compound IC50 for antiproliferative activity against human K562R cells; type: functional
HUVEC [26] = assay: Antiangiogenic activity in HUVEC assessed as inhibition of tube formation after 2 to 6 hrs by matrigel assay; type: functional, cell-based; settings: Homo sapiens
HUVEC [27] = assay: Antiangiogenic activity in HUVEC assessed as disorganization of the vasculature network at 50 nM after 2 hrs by matrigel assay; type: functional, cell-based; settings: Homo sapiens
Cytochrome P450 [28] = assay: Drug metabolism in human liver microsomes assessed as cytochrome P450-mediated 3-(1-(2-methylquinolin-4-yl)vinyl)-9H-carbazole metabolite formation at 100 uM after 6 hrs in presence of NADPH generating system by HPLC-UV-MS analysis; type: ADME
[29] = Drug metabolism in rat liver microsomes assessed as cytochrome P450-mediated 3-(1-(2-methylquinolin-4-yl)vinyl)-9H-carbazole metabolite formation at 100 uM after 6 hrs in presence of NADPH generating system by HPLC-UV-MS analysis; type: ADME
[30] = Metabolic stability in human liver microsomes assessed as parent compound at 100 uM up to […] in presence of NADPH generating system by HPLC-MS/MS analysis; type: ADME, Microsome
K-562R [31] = assay: Potency index, ratio of iso-CA-4 IC50 to compound IC50 for antiproliferative activity against human K562R cells; type: functional
[32] = Metabolic stability in rat liver microsomes assessed as parent compound at 100 uM up to […] in presence of NADPH generating system by HPLC-MS/MS analysis; type: ADME, Microsome
A549 [33] = assay: Potency index, ratio of CA-4 IC50 to compound IC50 for antiproliferative activity against human A549 cells; type: functional
HCT-116 [34] = assay: Induction of cell cycle arrest in human HCT116 cells assessed as accumulation at G2M phase after 24 hrs by propidium iodide staining based flow cytometry; type: functional
HUVEC [35] = assay: Antiangiogenic activity in HUVEC assessed as disorganization of the vasculature network at 10 nM after 6 hrs by matrigel assay; type: functional, cell-based; settings: Homo sapiens

For `C=C(c1ccc(OC)c(O)c1)c1cc(OC)c(OC)c(OC)c1`, the Drug metabolism [1] was “Metabolite_Detected”, the Drug metabolism (Cytochrome P450 [2]) was “Metabolite_Detected” and the pIC50 (U-87 MG) was 8.09. The solubility at 4 h [3] was 11.6 µg/mL (≈ 36.7 µM), the Drug metabolism (Cytochrome P450 [4]) was “Metabolite_Detected” and the Drug metabolism [5] was “Metabolite_Detected”. It also gave a pIC50 [6] of 5.68, a pIC50 (A549 [7]) of 8.10 and a pIC50 (K-562R [8]) of 8.52. The pIC50 (HUVEC [9]) was 8.70, the pIC50 (HT-29) was 6.58 and the Drug metabolism (Cytochrome P450 [10]) was “Metabolite_Detected”. The Drug metabolism (Cytochrome P450 [11]) was “Metabolite_Detected”, the Drug metabolism [12] was “Metabolite_Detected” and the logP ([13]; 24 h) was 3.25. For the same compound, the pIC50 (K562) was 8.70 and the Drug metabolism [14] was “Metabolite_Detected”.
Work on `C=C(c1ccnc(C)c1)c1ccc2c(c1)c1ccccc1n2C` yielded a pIC50 (HCT-116 [15]) of 7.72 and a pIC50 [6] of 5.21.
For `C=C(c1ccc2[nH]c3ccccc3c2c1)c1cc(C)nc2ccccc12`, the Drug metabolism (Cytochrome P450 [16]) was “Metabolite_Detected” and the Drug metabolism [17] was “Metabolite_Detected”.
For `C=C(c1ccc2c(c1)c1ccccc1n2C)c1nc(C)nc2ccccc12`, the pIC50 (HCT-116 [15]) was 7.40 and the pIC50 [6] was 5.68.
Work on `C=C(c1ccc2c(c1)c1cc(F)ccc1n2C)c1cn(C)c(=O)n(C)c1=O` yielded a pIC50 (HCT-116 [15]) of 6.52.
Compound `C=C(c1ccc2c(c1)c1ccccc1n2C)c1cn(C)c(=O)n(C)c1=O` has a pIC50 (HCT-116 [15]) of 6.71.
In the case of `C=C(c1ccc(OC)c(O)c1)c1cc(OC)c(O)c(OC)c1`, the Drug metabolism [18] was “Metabolite_Detected” and the Drug metabolism (Cytochrome P450 [19]) was “Metabolite_Detected”.
In the case of `C=C(C1=CC(=O)C(OC)=CC1=O)c1cc(OC)c(OC)c(OC)c1`, the Drug metabolism [18] was “Metabolite_Detected” and the Drug metabolism (Cytochrome P450 [19]) was “Metabolite_Detected”.
Work on `C=C(c1ccc2c(c1)c1ccccc1n2C)c1cc(C#N)nc2ccccc12` yielded a pIC50 (HCT-116 [15]) of 7.92 and a pIC50 [6] of 5.44.
For `COc1ccc(/C=C\c2cc(OC)c(OC)c(OC)c2)cc1O` [COMBRETASTATIN A4], the pIC50 (U-87 MG) was 8.40, the Drug metabolism (Cytochrome P450 [20]) was “Metabolite_Detected” and the Drug metabolism [21] was “Metabolite_Detected”. For the same compound, the pIC50 (HCT-116 [15]) was 8.66, the pIC50 [6] was 5.66 and the pIC50 (A549 [7]) was 6.70. The pIC50 (HUVEC [9]) was 8.77, the pIC50 (HT-29) was < 5.10 and the Drug metabolism [22] was “Metabolite_Detected”. For the same compound, the pIC50 (K562) was 8.30 and the Drug metabolism (Cytochrome P450 [23]) was “Metabolite_Detected”.
With `C=C(c1ccc2c(c1)c1ccccc1n2C)c1cc(C)nc2ccccc12` the Drug metabolism [1] was “Metabolite_Detected”, the pIC50 (U-87 MG) was 8.72 and the solubility at 4 h [3] was 0.42 µg/mL (≈ 1.21 µM). The Activity (HCT-116 [24]) was >90%, the pIC50 (HCT-116 [15]) was 8.70 and the “Ratio IC50” value (K-562R [25]) was 27. For the same compound, the Activity (HUVEC [26]) was “Dose-dependent effect”, the pIC50 [6] was 5.70 and the pIC50 (A549 [7]) was 8.52. For the same compound, the Activity (HUVEC [27]) was “Active”, the pIC50 (K-562R [8]) was 9.05 and the pIC50 (HUVEC [9]) was 9.09. The pIC50 (HT-29) was 8.52, the Drug metabolism (Cytochrome P450 [10]) was “Metabolite_Detected” and the Drug metabolism (Cytochrome P450 [28]) was “Metabolite_Detected”. The Drug metabolism [29] was “Metabolite_Detected”, the Stability [30] was “Stable” and the Drug metabolism (Cytochrome P450 [11]) was “Metabolite_Detected”. The Drug metabolism [12] was “Metabolite_Detected”, the logP at 24 h [13] was 5.29 and the “Ratio IC50” value (K-562R [31]) was 3. For the same compound, the Stability [32] was “Stable”, the “Ratio IC50” value (A549 [33]) was 67 and the Activity (HCT-116 [34]) was “Dose-dependent effect”. The pIC50 (K562) was 8.70 and the Activity (HUVEC [35]) was “Active”.
For `C=C(c1cc(OC)c(OC)c(OC)c1)c1ccc2c(c1)c1ccccc1n2C`, the pIC50 (HCT-116 [15]) was 7.82 and the pIC50 [6] was 5.52.
With `C=C(c1cc(C)nc(C)c1)c1ccc2c(ccn2C)c1` the Drug metabolism [1] was “Metabolite_Detected”, the pIC50 (U-87 MG) was 7.50 and the solubility at 4 h [3] was 0.54 µg/mL (≈ 2.06 µM). It also gave a pIC50 (HCT-116 [15]) of 8.42, a pIC50 [6] of 5.43 and a pIC50 (A549 [7]) of 7.21. For the same compound, the pIC50 (K-562R [8]) was 9.08, the pIC50 (HUVEC [9]) was 9.05 and the Drug metabolism (Cytochrome P450 [10]) was “Metabolite_Detected”. For the same compound, the Drug metabolism (Cytochrome P450 [11]) was “Metabolite_Detected”, the Drug metabolism [12] was “Metabolite_Detected” and the logP at 24 h [13] was 5.2. The pIC50 (K562) was 8.74.
With `C=C(c1ccc(OC)c(O)c1)c1cc(OC)c(OC)c(OC)c1O` the Drug metabolism [18] was “Metabolite_Detected” and the Drug metabolism (Cytochrome P450 [19]) was “Metabolite_Detected”.
In the case of `C=C(c1ccc2c(ccn2C)c1)c1cc(C#N)nc2ccccc12`, the Drug metabolism [1] was “Metabolite_Detected”, the solubility at 4 h [3] was 3.11 µg/mL (≈ 10.1 µM) and the Drug metabolism (Cytochrome P450 [10]) was “Metabolite_Detected”. The Drug metabolism (Cytochrome P450 [11]) was “Metabolite_Detected”, the Drug metabolism [12] was “Metabolite_Detected” and the logP at 24 h [13] was 2.37.

— ChEMBL document CHEMBL4330077, “1,1-Diheterocyclic Ethylenes Derived from Quinaldine and Carbazole as New Tubulin-Polymerization Inhibitors: Synthesis, Metabolism, and Biological Evaluation” (J Med Chem, 2019)
